Source: patent US9181260B2, “Crystalline form of sitagliptin sulfate” (MOEHS IBERICA S.L., priority 2012, dated 2015)
Counter-ions that a name gives are not always drawn. Like-named read-outs stand apart in the source and are kept apart here. Values belong to the molecule of their own block, whether it stands above or below them.

Assays:
Assay type in all cases: physicochemical
[1] = Hygroscopicity study, European Pharmacopeia Ed. 6.0 Section 5.11 (degree of hydration at 80% and 97% RH, 25° C.); details: for Higroscopicity RH 80% / Higroscopicity RH 97%: water content by weight difference
Method: International application WO 2009/085990 A2 describes the production of an anhydrous crystalline form of sitagliptin sulfate salt and its characterization by means of DSC (Differential Scanning calorimetry), TGA (Thermal Gravimetric Analysis) and XRPD (X-Ray Powder Diffraction). However and in the hands of the inventors of the present application, said crystalline form is hygroscopic under the conditions of the European Pharmacopeia Ed. 6.0 Section 5.11 (24 hours at 80% RH and 25° C.), readily reaching a water proportion corresponding to a dihydrate form. […] A stability study of the M form of sitagliptin sulfate was performed under conditions of the European Pharmacopeia Ed. 6.0 Section 5.11, i.e., the degree of hydration was measured at 80% relative humidity (RH) at a temperature of 25° C. Additionally, the degree of hydration was also measured at 97% relative humidity (RH) at a temperature of 25° C. The results are shown in Table 1, wherein the higroscopicity (expressed as the water content by means of weight difference, following the procedure described in European Pharmacopeia Ed. 6.0 Section 5.11) of samples of 1 g of sitagliptin sulfate polymorph M of the present invention after storage at 1 day, 3 days, 7 days, 14 days and 21 days at 80% RH and 97% RH, respectively. […] 6.0 Section 5.11, i.e., the degree of hydration is less than 0.2%. The crystalline form of sitagliptin sulfate after 21 days at a relative humidity of 80% and 97%, respectively, were analyzed by means of X-ray diffraction.

[2] = Accelerated stability study (40° C.±2° C., 75%±5% RH), water content by Karl-Fisher and XRPD; details: for Water content: Karl-Fisher
Method: Water Content (Karl-Fisher Method) The analysis is performed in a Mettler Toledo W30. It is determined in 0.2 g of sample using Hydranal medium K as solvent and Hydranal composite 5K as titrant. Accelerated stability study of the M form of sitagliptin sulfate was performed under the following conditions: temperature of 40° C.±2° C. and relative humidity (RH) of 75%±5%. The water content of the sample was determined at the beginning of the study, at 3 months and at 6 months, by means of Karl-Fisher. The crystalline form of sitagliptin sulfate after 6 months was analyzed by means of X-ray diffraction.

[3] = Water content determined by thermal gravimetric analysis (TGA)
Method: TGA analyses were performed using a Mettler/Toledo TGA/SDTA851e thermobalance. Parameters: heating range from 30 to 300° C. with a 10° C./min ramp and a 50 ml/min dry N2 flow.

[4] = Crystalline form after grinding
Method: 100.0 g (245.5 mmoles) of sitagliptin base were dissolved at 20-22° C. in a mixture of 750 ml of absolute ethanol and 120 ml of water. A previously prepared solution of 98.1% H2SO4 ([…], 240.9 mmoles) in ethanol (760 ml) was slowly added to said solution, maintaining the temperature between 20-25° C. When approximately ⅔ of the total volume of the acid solution had been added, the addition was stopped and 1.0 g (1.978 mmoles) of crystalline form M of sitagliptin sulfate obtained by means of any of the processes described in Examples 1 and 3-5 was added to the reaction mixture. The presence of a white precipitate that remains undissolved was immediately noticed. The addition of the acid solution was continued and once this ended, the mixture obtained was maintained at a temperature of 20-25° C. for 4 hours. The solid obtained was filtered and washed in the filter with absolute ethanol (2×100 ml). The wet product was dried in a vacuum oven at 40° C. for 22 hours to yield 97.1 g (192.1 mmoles) of a white crystalline solid (77.6%). XRPDs both of the wet product (FIG. 3) and of the dry product (FIG. 2) which correspond with form M of sitagliptin sulfate were performed. […] (FIG. 8). The water content determined by TGA (FIG. 13) is 0.02%.

[5] = 80% RH and 97% RH, 25° C., up to 21 days

- Higroscopicity RH 80% ([1]; 25° C., 80% RH, 1 day): 0.07%
- Higroscopicity RH 80% ([1]; 25° C., 80% RH, 3 days): 0.10%
- Higroscopicity RH 80% ([1]; 25° C., 80% RH, 7 days): 0.12%
- Higroscopicity RH 80% ([1]; 25° C., 80% RH, 14 days): 0.10%
- Higroscopicity RH 80% ([1]; 25° C., 80% RH, 21 days): 0.07%
- Higroscopicity RH 97% ([1]; 25° C., 97% RH, 1 day): 0.05%
- Higroscopicity RH 97% ([1]; 25° C., 97% RH, 3 days): 0.08%
- Higroscopicity RH 97% ([1]; 25° C., 97% RH, 7 days): 0.06%
- Higroscopicity RH 97% ([1]; 25° C., 97% RH, 14 days): 0.06%
- Higroscopicity RH 97% ([1]; 25° C., 97% RH, 21 days): 0.07%
- degree of hydration [1, 5]: less than 0.2%
- hygroscopicity (in words) [1, 5]: non-hygroscopic
- degree of hydration ([1]; 80% relative humidity, 25° C.): less than 0.2%
- hygroscopicity (in words) ([1]; 80% relative humidity, 25° C., Ph. Eur. 6.0 Section 5.11): non-hygroscopic
- Water content ([2]; 3 months at 40° C.±2° C., 75%±5% RH): 0.09%
- Water content ([2]; 6 months at 40° C.±2° C., 75%±5% RH): 0.01%
- Water content ([2]; Initial): 0.09%
- water content determined by TGA [3]: less than 0.05%
- water content determined by TGA ([3]; listed as Example 1): 0.02%
- water content determined by TGA ([3]; listed as Example 2): 0.02%
- water content determined by TGA ([3]; listed as Example 3): 0.03%
- water content determined by TGA ([3]; listed as Example 4): 0.01%
- water content determined by TGA ([3]; listed as Example 5): 0.004%
Compound: N[C@@H](CC(=O)N1CCn2c(nnc2C(F)(F)F)C1)Cc1cc(F)c(F)cc1F [form M, addition salt of sitagliptin with sulfuric acid (1:1)]
- crystalline form by XRPD after storage ([1]; 21 days, 25° C., 80% RH): corresponding to form M of sitagliptin sulfate
- crystalline form by XRPD after storage ([1]; 21 days, 25° C., 97% RH): corresponding to form M of sitagliptin sulfate
- crystalline form by XRPD after storage ([2]; 6 months, 40° C.±2° C., 75%±5% RH): corresponding to form M of sitagliptin sulfate
- crystalline form of the ground product [4]: still the crystalline form of sitagliptin sulfate object of the present invention

- hygroscopicity (in words) ([1]; 24 hours at 80% RH and 25° C., in the hands of the inventors): hygroscopic
Compound: N[C@@H](CC(=O)N1CCn2c(nnc2C(F)(F)F)C1)Cc1cc(F)c(F)cc1F.O=S(=O)(O)O [reference compound]
